Data set [1] can be described thus: Metabolic stability test in liver S9. Format: in vitro ADME. To be noted: pH 7.4, human liver S9 2 mg protein/mL, LC/MS; for remaining at 10 min: unchanged form after 10 minutes at 37°C, read-out: Remaining rate in human liver S9 (%/10min); for remaining at 1 h: unchanged form after 60 minutes at 37°C, read-out: Remaining rate in human liver S9 (%/60min). The method in brief: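 Compound from DMSO solution was incubated at 37°C with human liver S9 (final 2 mg protein/mL) in 100 mM potassium phosphate pH 7.4 with an NADPH-regenerating system for 0, 10 and 60 minutes. Reactions were stopped with acetonitrile/0.1% formic acid. Unchanged compound was measured by LC/MS as remaining rate (%) relative to zero time.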

A short description of data set [2]: Metabolic stability test in plasma. The data set is classed as in vitro ADME, human. Conditions: LC/MS; for remaining at 10 min: unchanged form after 10 minutes at 37°C in human plasma, read-out: Remaining rate in human plasma (%/10min); for remaining at 1 h: unchanged form after 60 minutes at 37°C in human plasma, read-out: Remaining rate in human plasma (%/60min). The method, boiled down:
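Compound in DMSO spiked into human, mouse or hamster plasma, incubated at 37°C for 0, 10 and 60 minutes, then quenched with acetonitrile/formic acid (final 0.1%). Unchanged compound in supernatant quantified by LC/MS; remaining rate (%) relative to time zero.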

The nature of data set [3]: Stability test in buffer (pH 7.4). The data set is classed as physicochemical. To be noted: phosphate buffer/acetonitrile 7:3, 100 mM potassium phosphate buffer (pH 7.4) and acetonitrile 7:3 (v/v), LC/MS; for remaining at 10 min: 10 minutes at 37°C, read-out: Buf. remaining rate (%/10min); for remaining at 1 h: 60 minutes at 37°C, read-out: Buf. remaining rate (%/60min). The method, boiled down:
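Compound from DMSO solution incubated at 37°C in 100 mM potassium phosphate buffer/acetonitrile 7:3 (v/v) for 0, 10 and 60 min, then quenched with acetonitrile containing formic acid (final 0.1%). Unchanged compound in supernatant quantified by LC/MS; remaining rate (%) = amount at each time / amount at zero time × 100.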

For `Cc1noc(-c2ccc(OC(=O)CCCc3ccc(NC(=O)c4ccccc4-c4ccc(C(F)(F)F)cc4)c(C(=O)N(C)C)c3)cc2)n1` [Compound 1-2, 4-{3-dimethylcarbamoyl-4-[(4'-trifluoromethylbiphenyl-2-carbonyl)amino]phenyl}butyric acid 4-(3-methyl-[1,2,4]oxadiazol-5-yl)phenyl ester], the values for the remaining at 10 min in data set [1], in data set [2] and in data set [3] were 0%, 20% and 98%, respectively. The remaining at 1 h in data set [1] stood at 0%; in data set [2] it was 0%; in data set [3] it was 97%.

With `COc1cc(C(=O)OC(C)C)cc(F)c1OC(=O)CCCc1ccc(NC(=O)c2ccc(C)nc2-c2ccc(C(F)(F)F)cc2)c(C(=O)N(C)C)c1` [Compound 1-38, 4-[4-(3-dimethylcarbamoyl-4-{[6-methyl-2-(4-trifluoromethylphenyl)pyridine-3-carbonyl]amino}phenyl)butyryloxy]-3-fluoro-5-methoxybenzoic acid isopropyl ester], the remaining at 10 min in data set [1] is 11%; in data set [2] it was 0%; in data set [3], 101%. Besides, the values for the remaining at 1 h in data set [1], in data set [2] and in data set [3] were 2%, 0% and 102%, respectively.

`COC(=O)c1ccc(OC(=O)CCCc2ccc(NC(=O)c3ccccc3-c3ccc(C(F)(F)F)cc3)c(C(=O)N3CCOCC3)c2)cc1` [Compound 1-26, 4-(4-{3-(morpholine-4-carbonyl)-4-[(4'-trifluoromethylbiphenyl-2-carbonyl)amino]phenyl}butyryloxy)benzoic acid methyl ester]: the remaining at 10 min was determined as 0% in data set [1], 23% in data set [2] and 99% in data set [3]. The remaining at 1 h in data set [1] is 0%; in data set [2], 0%; in data set [3], 102%.

Regarding `CN(C)C(=O)c1cc(CCCC(=O)Oc2ccc(C(=O)OC3CCc4ccccc43)cc2)ccc1NC(=O)c1ccccc1-c1ccc(C(F)(F)F)cc1` (stereo not drawn) [Compound 1-107, 4-[4-(3-dimethylcarbamoyl-4-{(4'-trifluoromethylbiphenyl-2-carbonyl)amino}phenyl)butyryloxy]benzoic acid indan-1-yl ester], the remaining at 10 min came out at 11% in data set [1], 63% in data set [2] and 98% in data set [3]. In addition, the remaining at 1 h was found to be 3% in data set [1], 2% in data set [2] and 99% in data set [3].

Regarding `CN(C)C(=O)c1cc(CCCC(=O)Oc2ccc(C(=O)O)cc2)ccc1NC(=O)c1ccccc1-c1ccc(C(F)(F)F)cc1` [Compound 1-25, 4-(4-{3-dimethylcarbamoyl-4-[(4'-trifluoromethylbiphenyl-2-carbonyl)amino]phenyl}butyryloxy) benzoic acid], the results for the remaining at 10 min in data set [1], in data set [2] and in data set [3] were 4%, 89% and 99%, respectively. The remaining at 1 h worked out at 0% in data set [1], 59% in data set [2] and 101% in data set [3].

For the compound `CCOc1cc(C(=O)OC)cc(Cl)c1OC(=O)CCCc1ccc(NC(=O)c2ccc(C)nc2-c2ccc(C(F)(F)F)cc2)c(C(=O)N(C)C)c1` [Compound 1-40, 3-chloro-4-[4-(3-dimethylcarbamoyl-4-{[6-methyl-2-(4-trifluoromethylphenyl)pyridine-3-carbonyl]amino}phenyl)butyryloxy]-5-ethoxybenzoic acid methyl ester], the remaining at 10 min in data set [1] worked out at 5%; in data set [2] it was 0%; in data set [3], 100%. Further, the remaining at 1 h in data set [1] stood at 0%; in data set [2], 0%; in data set [3] it was 102%.

As for `CN(C)C(=O)c1cc(CCCC(=O)Oc2ccc(C(=O)OCc3ccccn3)cc2)ccc1NC(=O)c1ccccc1-c1ccc(C(F)(F)F)cc1` [Compound 1-82, 4-[4-(3-dimethylcarbamoyl-4-{(4'-trifluoromethylbiphenyl-2-carbonyl)amino}phenyl)butyryloxy]benzoic acid pyridin-2-ylmethyl ester], the remaining at 10 min in data set [1] was 0%; in data set [2] it was 17%; in data set [3], 100%. The values for the remaining at 1 h in data set [1], in data set [2] and in data set [3] were 0%, 0% and 103%, respectively.

Take `CN(C)C(=O)c1cc(CCCC(=O)Oc2ccc(C(=O)OCC(=O)OCc3ccccc3)cc2)ccc1NC(=O)c1ccccc1-c1ccc(C(F)(F)F)cc1` [Compound 1-78, 4-[4-(3-dimethylcarbamoyl-4-{(4'-trifluoromethylbiphenyl-2-carbonyl)amino}phenyl)butyryloxy]benzoic acid benzyloxycarbonylmethyl ester]: the remaining at 10 min turned out to be 10% in data set [1], 51% in data set [2] and 97% in data set [3]. The remaining at 1 h in data set [1] is 2%; in data set [2], 2%; in data set [3] it was 97%.

For `COc1ccc(COC(=O)c2ccc(OC(=O)CCCc3ccc(NC(=O)c4ccccc4-c4ccc(C(F)(F)F)cc4)c(C(=O)N(C)C)c3)cc2)cc1` [Compound 1-96, 4-[4-(3-dimethylcarbamoyl-4-{(4'-trifluoromethylbiphenyl-2-carbonyl)amino}phenyl)butyryloxy]benzoic acid 4-methoxybenzyl ester], the remaining at 10 min was 15% in data set [1], 0% in data set [2] and 100% in data set [3]. The remaining at 1 h in data set [1] turned out to be 7%; in data set [2] it was 0%; in data set [3], 109%.

For the compound `CCOC(=O)c1cc(Cl)c(OC(=O)CCCc2ccc(NC(=O)c3ccc(C)nc3-c3ccc(C(F)(F)F)cc3)c(C(=O)N(C)C)c2)c(OC)c1` [Compound 1-48, 3-chloro-4-[4-(3-dimethylcarbamoyl-4-{[6-methyl-2-(4-trifluoromethylphenyl)pyridine-3-carbonyl]amino}phenyl)butyryloxy]-5-methoxybenzoic acid ethyl ester], the remaining at 10 min in data set [1] is 16%; in data set [2], 0%; in data set [3], 99%. In addition, the remaining at 1 h in data set [1] was determined as 6%; in data set [2] it was 0%; in data set [3], 97%.

As for `CCC(=O)c1ccc(OC(=O)CCCc2ccc(NC(=O)c3ccccc3-c3ccc(C(F)(F)F)cc3)c(C(=O)N(C)C)c2)cc1` [Compound 1-88, 4-(3-dimethylcarbamoyl-4-{(4'-trifluoromethylbiphenyl-2-carbonyl)amino}phenyl)butyric acid 4-propionylphenyl ester], the results for the remaining at 10 min in data set [1], in data set [2] and in data set [3] were 0%, 39% and 102%, respectively. The remaining at 1 h stood at 0% in data set [1], 0% in data set [2] and 101% in data set [3].

For `COC(=O)c1ccc(OC(=O)CCCc2ccc(NC(=O)c3ccccc3-c3ccc(C(F)(F)F)cn3)c(C(=O)N(C)C)c2)cc1` [Compound 1-19, 4-(4-{3-dimethylcarbamoyl-4-[2-(5-trifluoromethylpyridin-2-yl)benzoylamino]phenyl}butyryloxy)benzoic acid methyl ester], the remaining at 10 min turned out to be 0% in data set [1], 0% in data set [2] and 107% in data set [3]. Moreover, the remaining at 1 h in data set [1] is 0%; in data set [2], 0%; in data set [3], 100%.

`COC(=O)c1ccc(OC(=O)CCCc2ccc(NC(=O)c3ccccc3-c3ccc(C(F)(F)F)cc3)c(C(=O)N(C)C)c2)cc1C` [Compound 1-14, 4-(4-{3-dimethylcarbamoyl-4-[(4'-trifluoromethylbiphenyl-2-carbonyl)amino]phenyl}butyryloxy)-2-methyl benzoic acid methyl ester]: the remaining at 10 min in data set [1] worked out at 2%; in data set [2], 43%; in data set [3], 101%. Besides, the remaining at 1 h came to 0% in data set [1], 0% in data set [2] and 104% in data set [3].

As for `COC(=O)c1ccc(OC(=O)CCCc2ccc(NC(=O)c3ccccc3-c3ccc(C(F)(F)F)cc3)c(C(=O)N(C)C)c2)c(F)c1` [Compound 1-10, 4-(4-{3-dimethylcarbamoyl-4-[(4'-trifluoromethylbiphenyl-2-carbonyl)amino]phenyl}butyryloxy)-3-fluoro benzoic acid methyl ester], the remaining at 10 min stood at 0% in data set [1], 0% in data set [2] and 101% in data set [3]. The remaining at 1 h in data set [1] is 0%; in data set [2], 0%; in data set [3] it was 98%.

The values above are taken from patent EP1803452A1, “ESTER DERIVATIVE AND PHARMACEUTICAL USE THEREOF” (Japan Tobacco, Inc., priority 2004, dated 2006).
